Experimental data from patent US8541584B2, “3-(1,2,3-triazol-4-yl) pyrrolo [2,3-b] pyridine derivatives” (Merck Patent GmbH, priority 2009, dated 2013).

Molecular target: T1, IKKε (Homo sapiens, UniProt Q14164)
T1 sequence (Q14164 1-716): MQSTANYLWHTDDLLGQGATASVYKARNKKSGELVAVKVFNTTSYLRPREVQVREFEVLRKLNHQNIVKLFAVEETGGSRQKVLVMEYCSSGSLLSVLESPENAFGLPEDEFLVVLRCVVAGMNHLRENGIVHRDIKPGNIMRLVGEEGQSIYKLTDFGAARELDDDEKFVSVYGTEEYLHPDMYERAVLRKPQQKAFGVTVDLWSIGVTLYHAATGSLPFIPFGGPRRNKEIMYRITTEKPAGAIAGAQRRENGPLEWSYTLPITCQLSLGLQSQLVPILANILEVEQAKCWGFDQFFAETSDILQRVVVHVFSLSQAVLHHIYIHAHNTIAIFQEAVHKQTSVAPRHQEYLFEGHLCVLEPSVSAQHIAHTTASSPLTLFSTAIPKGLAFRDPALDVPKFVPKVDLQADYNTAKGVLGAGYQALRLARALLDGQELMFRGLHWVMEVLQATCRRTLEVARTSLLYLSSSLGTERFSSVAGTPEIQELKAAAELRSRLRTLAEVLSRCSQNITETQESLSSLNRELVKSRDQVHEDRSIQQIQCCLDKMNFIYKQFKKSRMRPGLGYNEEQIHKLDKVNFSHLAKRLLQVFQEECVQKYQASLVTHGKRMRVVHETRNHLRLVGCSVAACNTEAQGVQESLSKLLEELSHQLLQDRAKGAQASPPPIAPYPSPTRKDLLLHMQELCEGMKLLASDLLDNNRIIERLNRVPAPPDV
Test: IKKε kinase test (384-well flashplate)
Format: biochemical
Details: 1 nM IKKε, 10 μM ATP, 30° C., 120 min; read-out: IC50 [IKKepsilon]
Method: IKKε—Kinase Test (IKKepsilon)
The kinase assay is performed as 384-well flashplate assay.
1 nM IKKε, 800 nM biotinylated IκBα(19-42) peptide (biotin-C6-C6-[…]) and 10 μM ATP (with 0.3 μCi of ^33P-ATP/well) are incubated in a total volume of 50 μl (10 mM MOPS, 10 mM magnesium acetate, 0.1 mM EGTA, 1 mM dithiothreitol, 0.02% of Brij35, 0.1% of BSA, 0.1% of BioStab, pH 7.5) with or without test substance at 30° C. for 120 min. The reaction is stopped using 25 μl of 200 mM EDTA solution, filtered off with suction after 30 min at room temperature, and the wells are washed 3 times with 100 μl of 0.9% NaCl solution. The non-specific proportion of the kinase reaction (blank) is determined using 3 μM EMD 1126352 (BX-795). Radioactivity is measured in the Topcount. IC50 values are calculated using RS1.

| IC50 [nM] | SMILES |
| --- | --- |
| 0.5 to 1000 | CC(c1ccccc1C(F)(F)F)n1cc(-c2c[nH]c3ncc(-c4cnn(C)c4)cc23)nn1 (stereo not drawn) [Compound A20, 5-(1-Methyl-1H-pyrazol-4-yl)-3-{1-[1-(2-trifluoromethylphenyl)ethyl]-1H-1,2,3-triazol-4-yl}-1H-pyrrolo[2,3-b]pyridine] |
| 0.5 to 1000 | Cn1cc(-c2cnc3[nH]cc(-c4cn(Cc5cccc(F)c5F)nn4)c3c2)cn1 [Compound A25, 3-[1-(2,3-Difluorobenzyl)-1H-1,2,3-triazol-4-yl]-5-(1-methyl-1H-pyrazol-4-yl)-1H-pyrrolo-[2,3-b]pyridine] |
| 1000 to 10000 | Cn1cc(-c2cnc3[nH]cc(-c4cn(Cc5ccc6ncccc6c5)nn4)c3c2)cn1 [Compound A29, 6-{4-[5-(1-Methyl-1H-pyrazol-4-yl)-1H-pyrrolo[2,3-b]pyridin-3-yl]-1,2,3-triazol-1-ylmethyl}quinoline] |
| 0.5 to 1000 | Cc1cccc(Cn2cc(-c3c[nH]c4ncc(-c5cnn(C)c5)cc34)nn2)c1 [Compound A7, 3-[1-(3-Methylbenzyl)-1H-1,2,3-triazol-4-yl]-5-(1-methyl-1H-pyrazol-4-yl)-1H-pyrrolo[2,3-b]pyridine] |
| 0.5 to 1000 | Cn1cc(-c2cnc3[nH]cc(-c4cn(Cc5ccccc5F)nn4)c3c2)cn1 [Compound A17, 3-[1-(2-Fluorobenzyl)-1H-1,2,3-triazol-4-yl]-5-(1-methyl-1H-pyrazol-4-yl)-1H-pyrrolo-[2,3-b]pyridine] |
| 0.5 to 1000 | Cn1cc(-c2cnc3[nH]cc(-c4cn(Cc5ccncc5)nn4)c3c2)cn1 [Compound A9, 5-(1-Methyl-1H-pyrazol-4-yl)-3-(1-pyridin-4-ylmethyl-1H-1,2,3-triazol-4-yl)-1H-pyrrolo-[2,3-b]pyridine] |
